Legend:
HepG2 = assay: Cell viability assay (Cell-Titer GLO); assay type: cell-based; conditions: Homo sapiens, Liver cancer, 48 hrs, read-out: Anti-proliferative EC50
Experimental: (§1) For cell viability, cells were seeded in 384 opaque-walled plates with clear bottoms at 300–500 cells per well (optimum density for growth) in a total volume of 20 μL of media. The media was according to culture conditions of each individual cell line (mentioned above). After 12 hrs, compounds were added in a total volume of 5 μL of media (two-fold diluted) to each well with final concentrations from 5 nM to 30 μM. The measurements were conducted 48 hrs after seeding of the cells. Then, 25 μL of Cell-Titer GLO reagent (Promega) was added, and luminescence was measured on an EnSpire multimode plate reader (PerkinElmer), according to the manufacturer’s instructions. The estimated in vitro half-maximal inhibitory concentration (EC50) values were calculated using GraphPad Prism® v6.0 (San Diego, CA) software. The cell viability for A549 cells was also performed for 72- and 96-hrs by using the same experimental conditions as described above.

22RV1 = assay: Cell viability assay (Cell-Titer GLO); assay type: cell-based; conditions: Homo sapiens, Prostate cancer, 48 hrs, read-out: Anti-proliferative EC50
Experimental: as §1

Hela = assay: Cell viability assay (Cell-Titer GLO); assay type: cell-based; conditions: Homo sapiens, Cervical cancer, 48 hrs, read-out: Anti-proliferative EC50
Experimental: as §1

LLC = assay: Cell viability assay (Cell-Titer GLO); assay type: cell-based; conditions: Lewis lung carcinoma; LLC^a; Lung cancer; 48 hrs; read-out: Anti-proliferative EC50
Experimental: as §1

H358 = assay: Cell viability assay (Cell-Titer GLO); assay type: cell-based; conditions: Homo sapiens, NCI-H358; H358^b; Lung cancer; p53 null or mutant cancer cell lines; 48 hrs; read-out: Anti-proliferative EC50
Experimental: as §1

MGC-803 = assay: Cell viability assay (Cell-Titer GLO); assay type: cell-based; conditions: Homo sapiens; MGC-803^c; Gastric cancer; p53 null or mutant cancer cell lines; 48 hrs; read-out: Anti-proliferative EC50
Experimental: as §1

95D = assay: Cell viability assay (Cell-Titer GLO); assay type: cell-based; conditions: Lung cancer, 48 hrs, read-out: Anti-proliferative EC50
Experimental: as §1

HCT116 = assay: Cell viability assay (Cell-Titer GLO); assay type: cell-based; conditions: Homo sapiens, HCT-116, Colon carcinoma, 48 hrs, read-out: Anti-proliferative EC50
Experimental: as §1

Huh-7 = assay: Cell viability assay (Cell-Titer GLO); assay type: cell-based; conditions: Homo sapiens, Liver cancer, 48 hrs, read-out: Anti-proliferative EC50
Experimental: as §1

NCI-N87 = assay: Cell viability assay (Cell-Titer GLO); assay type: cell-based; conditions: Homo sapiens; NCI-N87^c; Gastric cancer; p53 null or mutant cancer cell lines; 48 hrs; read-out: Anti-proliferative EC50
Experimental: as §1

Du145 = assay: Cell viability assay (Cell-Titer GLO); assay type: cell-based; conditions: Homo sapiens, DU-145, Prostate cancer, 48 hrs, read-out: Anti-proliferative EC50
Experimental: as §1

βTC6 = assay: Cell viability assay (Cell-Titer GLO); assay type: cell-based; conditions: βTC6^a; Pancreatic insulinoma; 48 hrs; read-out: Anti-proliferative EC50
Experimental: as §1

U2OS = assay: Cell viability assay (Cell-Titer GLO); assay type: cell-based; conditions: Homo sapiens, Osteosarcoma, 48 hrs, read-out: Anti-proliferative EC50
Experimental: as §1

Hs578T = assay: Cell viability assay (Cell-Titer GLO); assay type: cell-based; conditions: Homo sapiens, Hs-578T, Breast cancer, 48 hrs, read-out: Anti-proliferative EC50
Experimental: as §1

H1650 = assay: Cell viability assay (Cell-Titer GLO); assay type: cell-based; conditions: Homo sapiens, NCI-H1650, Lung cancer, 48 hrs, read-out: Anti-proliferative EC50
Experimental: as §1

H1299 = assay: Cell viability assay (Cell-Titer GLO); assay type: cell-based; conditions: Homo sapiens, NCI-H1299; H1299^b; Lung cancer; p53 null or mutant cancer cell lines; 48 hrs; read-out: Anti-proliferative EC50
Experimental: as §1

K562 = assay: Cell viability assay (Cell-Titer GLO); assay type: cell-based; conditions: Homo sapiens, Leukemia, 48 hrs, read-out: Anti-proliferative EC50
Experimental: as §1

MCF-7 = assay: Cell viability assay (Cell-Titer GLO); assay type: cell-based; conditions: Homo sapiens, MCF7, Breast cancer, 48 hrs, read-out: Anti-proliferative EC50
Experimental: as §1

LNCaP = assay: Cell viability assay (Cell-Titer GLO); assay type: cell-based; conditions: Homo sapiens, Prostate cancer, 48 hrs, read-out: Anti-proliferative EC50
Experimental: as §1

C4-2B = assay: Cell viability assay (Cell-Titer GLO); assay type: cell-based; conditions: Prostate cancer, 48 hrs, read-out: Anti-proliferative EC50
Experimental: as §1

A431 = assay: Cell viability assay (Cell-Titer GLO); assay type: cell-based; conditions: Homo sapiens, A-431; A431^c; Skin carcinoma; p53 null or mutant cancer cell lines; 48 hrs; read-out: Anti-proliferative EC50
Experimental: as §1

MKN-7 = assay: Cell viability assay (Cell-Titer GLO); assay type: cell-based; conditions: Homo sapiens; MKN-7^c; Gastric cancer; p53 null or mutant cancer cell lines; 48 hrs; read-out: Anti-proliferative EC50
Experimental: as §1

MDA-MB-231 = assay: Cell viability assay (Cell-Titer GLO); assay type: cell-based; conditions: Homo sapiens, Breast cancer, 48 hrs, read-out: Anti-proliferative EC50
Experimental: as §1

H460 = assay: Cell viability assay (Cell-Titer GLO); assay type: cell-based; conditions: Homo sapiens, NCI-H460, Lung cancer, 48 hrs, read-out: Anti-proliferative EC50
Experimental: as §1

ΔSkp1^1−140 = molecular target: T1, ΔSkp1^1−140 (Homo sapiens, UniProt P63208); assay: SPRi assay; assay type: binding
T1 construct: pETDuet-Skp1(1-140); His6; made in house; host or cells: Escherichia coli BL21 (DE3)
T1 sequence (P63208 1-140, stated change not applied): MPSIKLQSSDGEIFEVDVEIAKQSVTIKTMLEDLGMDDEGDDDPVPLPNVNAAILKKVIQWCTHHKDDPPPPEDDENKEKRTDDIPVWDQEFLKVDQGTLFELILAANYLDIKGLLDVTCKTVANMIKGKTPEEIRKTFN
Experimental: Freshly deposited gold coated standard SPRi chips/slides (Plexera, LLC) were cleaned, and compound(s) at 10 mM concentration in 100% DMSO were spotted on the chips using a micropipette. After this, the slides were left for complete evaporation of DMSO (under vacuum) at room temperature for 2 hrs. […] The slides were subsequently washed with DMSO, ethanol, and finally with distilled water for 15 minutes (ultrasonically), respectively, to remove non-covalently bound compounds. After drying with nitrogen, the slides were assembled with flow cell and then mounted on SPRi instrument for measurement, or stored at 4°C to be used for later experiments.
All the experiments were carried out using the PlexArray® HT system (Plexera, LLC), which is based on surface plasmon resonance imaging. Oval regions of interests (ROIs) were set as 9 pixels × 7 pixels area in imaging area. ROIs of vehicle (DMSO) were used as controls for measurement of specific signals. […] A 1:3 mixture of glycine. HCL (pH 4.2) and 0.5% (v/v) SDS, respectively, was used to regenerate the surface and remove bound proteins from the small molecules enabling the sensor chip to be reused for additional analyte injections.
The Tris buffer (10 mM Tris-HCl pH 8.0, 100 mM NaCl), without any reducing agent, was used as both analyte and running buffer. […]

mycobacterial = assay: Anti-mycobacterial evaluation; assay type: cell-based

## Nc1ccc(-c2nc3ccccc3c3[nH]c4ccccc4c23)cc1 [Z0933M]
HepG2
  EC50: 4.08 ± 0.95 µM
22RV1
  EC50: 1.11 ± 0.1 µM
Hela
  EC50: 0.36 ± 0.06 µM
LLC
  EC50: 1.85 ± 0.35 µM
H358
  EC50: 14.9 ± 0.42 µM
MGC-803
  EC50: > 30 µM
95D
  EC50: 3.14 ± 0.26 µM
HCT116
  EC50: 2.82 ± 0.33 µM
Huh-7
  EC50: 3.6 ± 0.81 µM
NCI-N87
  EC50: > 30 µM
Du145
  EC50: 0.25 ± 0.02 µM
βTC6
  EC50: 0.37 ± 0.007 µM
U2OS
  EC50: 0.97 ± 0.09 µM
Hs578T
  EC50: 2.49 ± 0.07 µM
H1650
  EC50: 2.35 ± 0.45 µM
H1299
  EC50: 11.5 ± 0.21 µM
K562
  EC50: 0.735 ± 0.03 µM
MCF-7
  EC50: 1.46 ± 0.01 µM
LNCaP
  EC50: 0.88 ± 0.03 µM
C4-2B
  EC50: 1.9 ± 0.07 µM
A431
  EC50: > 30 µM
MKN-7
  EC50: > 30 µM
MDA-MB-231
  EC50: 2.9 ± 0.63 µM
H460
  EC50: 2.69 ± 0.07 µM
ΔSkp1^1−140
  Kd: 0.0404 ± 0.0082 µM
mycobacterial
  MIC: > 30 µM
